In patent US20240308968A1, “FUNGICIDAL SUBSTITUTED HETEROCYCLES” (FMC Corporation, priority 2021, published 2024):

Experiments:
Type in all cases: in vivo
[1] = system: Zymoseptoria tritici; assay: Test A: preventive spray on wheat seedlings, wheat leaf blotch disease rating; details: 100 = 100% disease control, 0 = no control; for pest or weed control at 250 ppm / pest or weed control at 50 ppm: Zymoseptoria tritici, 456 h
Description: (§1) General protocol for preparing test suspensions for Tests A-F: the test compounds were first dissolved in acetone in an amount equal to 3% of the final volume and then suspended at the desired concentration (in ppm) in acetone and purified water (50/50 mix by volume) containing 50 to 250 ppm of the surfactant PEG400 (polyhydric alcohol esters). The resulting test suspensions were then used in Tests A-F.
The test solution was sprayed to the point of run-off on wheat seedlings. The following day the seedlings were inoculated with a spore suspension of Zymoseptoria tritici (the causal agent of wheat leaf blotch) and incubated in a saturated atmosphere at 24° C. for 48 h, and then moved to a growth chamber at 20° C. for 17 days, after which time disease ratings were made. […]

[2] = system: Puccinia recondita f. sp. Tritici; assay: Test B: preventive spray on wheat seedlings, wheat leaf rust disease rating; details: 100 = 100% disease control, 0 = no control; for pest or weed control at 250 ppm / pest or weed control at 50 ppm: Puccinia recondita, 192 h
Description: as §1
The test solution was sprayed to the point of run-off on wheat seedlings. The following day the seedlings were inoculated with a spore suspension of Puccinia recondita f. sp. Tritici (the causal agent of wheat leaf rust) and incubated in a saturated atmosphere at 20° C. for 24 h, and then moved to a growth chamber at 20° C. for 7 days, after which time disease ratings were made.
(§2) The test suspension was sprayed to the point of run-off on tomato seedlings. The following day the seedlings were inoculated with a spore suspension of Alternaria solani (the causal agent of tomato early blight) and incubated in a saturated atmosphere at 27° C. for 48 h, and then moved to a growth chamber at 20° C. for 3 days, after which time visual disease ratings were made. A rating of 100 indicates 100% disease control and a rating of 0 indicates no disease control (relative to the controls). A dash (-) indicates the compound was not tested.

[3] = system: Phakopsora pachyrhizi; assay: Test D: preventive spray on soybean seedlings, Asian soybean rust disease rating; details: 100 = 100% disease control, 0 = no control; for pest or weed control at 250 ppm / pest or weed control at 50 ppm: Phakopsora pachyrhizi, 216 h
Description: as §1
The test solution was sprayed to the point of run-off on soybean seedlings. The following day the seedlings were inoculated with a spore suspension of Phakopsora pachyrhizi (the causal agent of Asian soybean rust) and incubated in a saturated atmosphere at 22° C. for 24 h and then moved to a growth chamber at 22° C. for 8 days, after which time visual disease ratings were made.
as §2

[4] = system: Botrytis cinerea; assay: Test E: preventive spray on tomato seedlings, tomato Botrytis disease rating; details: 100 = 100% disease control, 0 = no control; for pest or weed control at 250 ppm / pest or weed control at 50 ppm: Botrytis cinerea, 120 h
Description: as §1
The test suspension was sprayed to the point of run-off on tomato seedlings. The following day the seedlings were inoculated with a spore suspension of Botrytis cinerea (the causal agent of tomato Botrytis) and incubated in a saturated atmosphere at 20° C. for 48 h, and then moved to a growth chamber at 24° C. for 3 days, after which time visual disease ratings were made.
as §2

[5] = system: Alternaria solani; assay: Test F: preventive spray on tomato seedlings, tomato early blight disease rating; details: 100 = 100% disease control, 0 = no control; for pest or weed control at 250 ppm / pest or weed control at 50 ppm: Alternaria solani, 120 h
Description: as §1, §2

[6] = system: Blumeria graminis f. sp. Tritici; assay: Test C: preventive spray on wheat seedlings, wheat powdery mildew disease rating; details: 100 = 100% disease control, 0 = no control; for pest or weed control at 250 ppm / pest or weed control at 50 ppm: Blumeria graminis, 192 h
Description: as §1
The test suspension was sprayed to the point of run-off on wheat seedlings. The following day the seedlings were inoculated with a spore dust of Blumeria graminis f. sp. Tritici, (also known as Erysiphe graminis f. sp. Tritici, the causal agent of wheat powdery mildew) and incubated in a growth chamber at 20° C. for 8 days, after which time visual disease ratings were made.
as §2

Compound: COc1cc(OC)c(Cl)c(-c2nc(C)nc(C)c2-c2ccc(F)cc2Cl)c1 [Compound 42, 4-(2-chloro-3,5-dimethoxyphenyl)-5-(2-chloro-4-fluorophenyl)-2,6-dimethylpyrimidine]
- pest or weed control at 250 ppm ([1]; 250 ppm): 96%
- pest or weed control at 250 ppm ([2]; 250 ppm): 100%
- pest or weed control at 250 ppm ([3]; 250 ppm): 100%
- pest or weed control at 250 ppm ([4]; 250 ppm): 99%
- pest or weed control at 250 ppm ([5]; 250 ppm): 100%
- pest or weed control at 250 ppm ([6]; 250 ppm): 100%

Compound: Cc1ncnc(-c2ccc(F)cc2Cl)c1-c1ccc(F)cc1Cl [Compound 43]
- Test A disease control rating ([1]; 250 ppm): 0%
- Test B disease control rating ([2]; 250 ppm): 0%
- Test D disease control rating ([3]; 250 ppm): 78%
- Test E disease control rating ([4]; 250 ppm): 0%
- Test F disease control rating ([5]; 250 ppm): 0%
- Test C disease control rating ([6]; 250 ppm): 0%

Compound: COc1cc(OC)cc(-c2nc(C)nc(C)c2-c2ccc(F)cc2Cl)c1 [Compound 44, 5-(2-chloro-4-fluorophenyl)-4-(3,5-dimethoxyphenyl)-2,6-dimethylpyrimidine]
- pest or weed control at 250 ppm ([1]; 250 ppm): 99%
- pest or weed control at 250 ppm ([2]; 250 ppm): 100%
- pest or weed control at 250 ppm ([3]; 250 ppm): 95%
- pest or weed control at 250 ppm ([4]; 250 ppm): 99%
- pest or weed control at 250 ppm ([5]; 250 ppm): 98%
- pest or weed control at 250 ppm ([6]; 250 ppm): 99%

Compound: COc1cc(OC)cc(-c2nc(Cl)nc(C)c2-c2ccc(F)cc2Cl)c1 [Compound 47]
- Test A disease control rating ([1]; 250 ppm): 100%
- Test B disease control rating ([2]; 250 ppm): 100%
- Test D disease control rating ([3]; 250 ppm): 98%
- Test E disease control rating ([4]; 250 ppm): 93%
- Test F disease control rating ([5]; 250 ppm): 92%
- Test C disease control rating ([6]; 250 ppm): 98%

Compound: COc1cc(OC)c(Cl)c(-c2nc(Cl)nc(C)c2-c2c(F)cccc2F)c1 [Compound 48, 2-chloro-4-(2-chloro-3,5-dimethoxyphenyl)-5-(2,6-difluorophenyl)-6-methylpyrimidine]
- pest or weed control at 250 ppm ([1]; 250 ppm): 100%
- pest or weed control at 250 ppm ([2]; 250 ppm): 100%
- pest or weed control at 250 ppm ([3]; 250 ppm): 100%
- pest or weed control at 250 ppm ([4]; 250 ppm): 99%
- pest or weed control at 250 ppm ([5]; 250 ppm): 100%
- pest or weed control at 250 ppm ([6]; 250 ppm): 100%

Compound: COc1cc(OC)c(Cl)c(-c2nc(Cl)nc(C)c2-c2ccc(F)cc2Cl)c1 [Compound 49, 2-chloro-4-(2-chloro-3,5-dimethoxyphenyl)-5-(2-chloro-4-fluorophenyl)-6-methylpyrimidine]
- pest or weed control at 250 ppm ([1]; 250 ppm): 100%
- pest or weed control at 250 ppm ([2]; 250 ppm): 100%
- pest or weed control at 250 ppm ([3]; 250 ppm): 100%
- pest or weed control at 250 ppm ([4]; 250 ppm): 96%
- pest or weed control at 250 ppm ([5]; 250 ppm): 100%
- pest or weed control at 250 ppm ([6]; 250 ppm): 100%

Compound: COc1ccc(Cl)c(-c2nc(C)nc(C)c2-c2ccc(F)cc2Cl)c1 [Compound 50, 5-(2-chloro-4-fluorophenyl)-4-(2-chloro-5-methoxyphenyl)-2,6-dimethylpyrimidine]
- pest or weed control at 250 ppm ([1]; 250 ppm): 100%
- pest or weed control at 250 ppm ([2]; 250 ppm): 100%
- pest or weed control at 250 ppm ([3]; 250 ppm): 100%
- pest or weed control at 250 ppm ([4]; 250 ppm): 99%
- pest or weed control at 250 ppm ([5]; 250 ppm): 100%
- pest or weed control at 250 ppm ([6]; 250 ppm): 100%

Compound: COc1cc(OC)cc(-c2ncnc(OC)c2-c2c(F)cc(F)cc2F)c1 [Compound 51]
- Test A disease control rating ([1]; 50 ppm): 0%
- Test B disease control rating ([2]; 50 ppm): 9%
- Test D disease control rating ([3]; 50 ppm): 8%
- Test E disease control rating ([4]; 50 ppm): 30%
- Test F disease control rating ([5]; 50 ppm): 0%
- Test C disease control rating ([6]; 50 ppm): 0%

Compound: COc1cc(OC)cc(-c2nc(C)nc(Cl)c2-c2ccc(F)cc2Cl)c1 [Compound 52]
- Test A disease control rating ([1]; 250 ppm): 100%
- Test B disease control rating ([2]; 250 ppm): 89%
- Test D disease control rating ([3]; 250 ppm): 13%
- Test E disease control rating ([4]; 250 ppm): 94%
- Test F disease control rating ([5]; 250 ppm): 26%
- Test C disease control rating ([6]; 250 ppm): 99%

Compound: COc1cc(OC)cc(-c2nc(C)nc(C)c2-c2c(F)cc(F)cc2F)c1 [Compound 53, 4-(3,5-dimethoxyphenyl)-2,6-dimethyl-5-(2,4,6-trifluorophenyl)pyrimidine]
- pest or weed control at 50 ppm ([1]; 50 ppm): 100%
- pest or weed control at 50 ppm ([2]; 50 ppm): 100%
- pest or weed control at 50 ppm ([3]; 50 ppm): 97%
- pest or weed control at 50 ppm ([4]; 50 ppm): 96%
- pest or weed control at 50 ppm ([5]; 50 ppm): 97%
- pest or weed control at 50 ppm ([6]; 50 ppm): 100%

Compound: COc1cc(OC)c(Cl)c(-c2nc(C)nc(C)c2-c2c(F)cc(F)cc2F)c1 [Compound 54, 4-(2-chloro-3,5-dimethoxyphenyl)-2,6-dimethyl-5-(2,4,6-trifluorophenyl)pyrimidine]
- pest or weed control at 50 ppm ([1]; 50 ppm): 100%
- pest or weed control at 50 ppm ([2]; 50 ppm): 100%
- pest or weed control at 50 ppm ([3]; 50 ppm): 100%
- pest or weed control at 50 ppm ([4]; 50 ppm): 97%
- pest or weed control at 50 ppm ([5]; 50 ppm): 99%
- pest or weed control at 50 ppm ([6]; 50 ppm): 100%

Compound: COc1cc(OC)c(Cl)c(-c2nc(C)nc(C)c2-c2c(F)cccc2F)c1 [Compound 55]
- Test A disease control rating ([1]; 50 ppm): 100%
- Test B disease control rating ([2]; 50 ppm): 100%
- Test D disease control rating ([3]; 50 ppm): 100%
- Test E disease control rating ([4]; 50 ppm): 99%
- Test F disease control rating ([5]; 50 ppm): 99%
- Test C disease control rating ([6]; 50 ppm): 100%

Compound: CCc1nc(C)nc(-c2cc(OC)cc(OC)c2Cl)c1-c1ccc(F)cc1Cl [Compound 56, 4-(2-chloro-3,5-dimethoxyphenyl)-5-(2-chloro-4-fluorophenyl)-6-ethyl-2-methylpyrimidine]
- pest or weed control at 50 ppm ([1]; 50 ppm): 100%
- pest or weed control at 50 ppm ([2]; 50 ppm): 100%
- pest or weed control at 50 ppm ([3]; 50 ppm): 88%
- pest or weed control at 50 ppm ([4]; 50 ppm): 94%
- pest or weed control at 50 ppm ([5]; 50 ppm): 91%
- pest or weed control at 50 ppm ([6]; 50 ppm): 100%

Compound: CCc1nc(C)nc(-c2cc(OC)cc(OC)c2Cl)c1-c1c(F)cccc1F [Compound 57, 4-(2-chloro-3,5-dimethoxyphenyl)-5-(2,6-difluorophenyl)-6-ethyl-2-methylpyrimidine]
- pest or weed control at 50 ppm ([1]; 50 ppm): 100%
- pest or weed control at 50 ppm ([2]; 50 ppm): 100%
- pest or weed control at 50 ppm ([3]; 50 ppm): 73%
- pest or weed control at 50 ppm ([4]; 50 ppm): 96%
- pest or weed control at 50 ppm ([5]; 50 ppm): 97%
- pest or weed control at 50 ppm ([6]; 50 ppm): 100%

Compound: COc1cc(OC)cc(-c2nc(C)nc(OC)c2-c2ccc(F)cc2Cl)c1 [Compound 58]
- Test A disease control rating ([1]; 50 ppm): 24%
- Test B disease control rating ([2]; 50 ppm): 0%
- Test D disease control rating ([3]; 50 ppm): 0%
- Test E disease control rating ([4]; 50 ppm): 79%
- Test F disease control rating ([5]; 50 ppm): 0%
- Test C disease control rating ([6]; 50 ppm): 21%

Compound: COc1cc(OC)c(Br)c(-c2nc(C)nc(C)c2-c2ccc(F)cc2Cl)c1 [Compound 59, 4-(2-bromo-3,5-dimethoxyphenyl)-2,6-dimethyl-5-(2-chloro-4-fluorophenyl)pyrimidine]
- pest or weed control at 50 ppm ([1]; 50 ppm): 100%
- pest or weed control at 50 ppm ([2]; 50 ppm): 100%
- pest or weed control at 50 ppm ([3]; 50 ppm): 100%
- pest or weed control at 50 ppm ([4]; 50 ppm): 88%
- pest or weed control at 50 ppm ([5]; 50 ppm): 98%
- pest or weed control at 50 ppm ([6]; 50 ppm): 100%

Compound: COc1cc(OC)cc(-c2c(-c3c(F)cc(F)cc3F)noc(=O)c2C)c1 [Compound 60]
- Test A disease control rating ([1]; 50 ppm): 82%
- Test B disease control rating ([2]; 50 ppm): 99%
- Test D disease control rating ([3]; 50 ppm): 75%
- Test E disease control rating ([4]; 50 ppm): 87%
- Test F disease control rating ([5]; 50 ppm): 62%
- Test C disease control rating ([6]; 50 ppm): 96%

Compound: COc1cc(OC)cc(-c2c(-c3ccc(F)cc3F)noc(=O)c2C)c1 [Compound 61]
- Test A disease control rating ([1]; 50 ppm): 63%
- Test B disease control rating ([2]; 50 ppm): 55%
- Test D disease control rating ([3]; 50 ppm): 0%
- Test E disease control rating ([4]; 50 ppm): 83%
- Test F disease control rating ([5]; 50 ppm): 0%
- Test C disease control rating ([6]; 50 ppm): 0%

Compound: COc1cc(OC)c(Cl)c(-c2c(-c3ccc(F)cc3F)noc(=O)c2C)c1 [Compound 62]
- Test A disease control rating ([1]; 50 ppm): 100%
- Test B disease control rating ([2]; 50 ppm): 99%
- Test D disease control rating ([3]; 50 ppm): 87%
- Test E disease control rating ([4]; 50 ppm): 97%
- Test F disease control rating ([5]; 50 ppm): 0%
- Test C disease control rating ([6]; 50 ppm): 76%
